From publication PMC4608580, “Synthesis and Evaluation of Biological Activity of Antimicrobial – Pro-Proliferative Peptide Conjugates” (PLoS ONE, 2015)
In brackets after ≈: the same amount, converted by molar mass. Residues, ends and D or L forms follow the SMILES beside them.

Assays:
B. cereus = type: cell-based; conditions: 24 h
Experimental: (§1) Luria-Bertani broth (LB) and Sabouraud Dextrose broth (SB) (Biocorp, Poland) were used for cultivation of bacteria and fungi strains, respectively. Antimicrobial activity of peptides was analyzed through determination of MIC (minimal inhibitory concentration) parameter according to the standard microdilution technique performed on 96-well plates. Mueller-Hinton broth (MHB) was used as the working medium for all bacterial strains, while in case of fungi it was additionally supplemented with 2% glucose.
(§2) Briefly, inoculum was prepared from freshly grown cultures of microorganisms being at their exponential phase of growth. Each well of 96-well plates containing 100 μL of serially diluted peptides in PBS (phosphate buffer saline) at concentration ranging from 2 to 250 μg/mL were inoculated with 100 μL of approximately 10^5 CFU/mL of bacterial suspension or about 2.5 x 10^3 CFU/mL of fungi suspended in a double concentrated Mueller-Hinton broth (supplemented with 2% glucose for Candida spps.). Then plates were incubated overnight at 37°C and absorbance was read at 590 nm after 24 h. Cultures without peptide were treated as positive control, while uninoculated Mueller-Hinton broth was defined as negative control. All measurements were run at least in triplicate.
(§3) All peptides were screened against the wide range of microorganisms, including Gram-negative, Gram-positive bacteria and fungi from Candida species (Table 2). Broth microdilution method for MIC determination was used as a standard procedure. All assays were performed on liquid Mueller-Hinton broth, which was additionally supplemented with 2% glucose when fungicidal activity towards Candida spps. was analyzed.

[1] = tested on: Escherichia coli (PCM 2057); type: cell-based; conditions: PCM 2057, 24 h
Excerpt: (§4) Escherichia coli (PCM 2057), Staphylococcus aureus (PCM 2054), Staphylococcus epidermidis (PCM 2118), Pseudomonas aeruginosa (PCM 499) were obtained from Polish Collection of Microorganisms. Fungi strains Candida albicans (CCM 8186), Candida glabrata (CCM 8270), Candida parapsilosis (CCM 8260), Candida krusei (CCM 8271), Candida tropicalis (CCM 8264) were acquired from Czech Collection of Microorganisms.
as §1, §2, §3

[2] = tested on: Pseudomonas aeruginosa (PCM 499); type: cell-based; conditions: PCM 499, 24 h
Excerpt: as §4, §1, §2, §3

[3] = tested on: Staphylococcus aureus (PCM 2054); type: cell-based; conditions: PCM 2054, 24 h
Excerpt: as §4, §1, §2, §3

[4] = tested on: Staphylococcus epidermidis (PCM 2118); type: cell-based; conditions: PCM 2118, 24 h
Excerpt: as §4, §1, §2, §3

[5] = tested on: immortalized human HaCaT keratinocytes; assay: Cell proliferation assay (MTT); type: cell-based; conditions: 72 h, serum-free DMEM, peptide at 1–25 μg/mL
Experimental: (§5) In our study two kind of cells were used: immortalized human HaCaT keratinocytes (DKFZ Heidelberg, Germany) and primary dermal fibroblasts obtained from 3 healthy donors. Both types of the used cell lines were grown in Dulbecco's modified Eagle's medium (DMEM) (Sigma–Aldrich, Germany), that contained […] of glucose, […] of L-glutamine, sodium pyruvate and sodium bicarbonate. Additionally, medium was supplemented with 10% of FCS (fetal calf serum, Sigma-Aldrich, Germany), 100 U/mL of penicillin and 100 μg/mL streptomycin (Sigma-Aldrich, Germany). The cells were grown in culture dishes (BD, USA) under standard conditions in a humidified atmosphere with 5% CO2 at 37°C and medium was changed every 2 days.
(§6) The fibroblasts and keratinocytes were seeded at density of 4500 and 6000 cells per well, respectively, into 96-well plates suspended in a medium supplemented with 10% of FCS. After 24 h the media were exchanged with serum- and antibiotic- free DMEM and tested peptides dissolved in PBS were added yielding final concentration ranging from 1 to 50 μg/mL. Cells were incubated for the next 24 hours, when the medium was exchanged again and fresh portion of peptides (used at the same concentrations as previously) was added. Incubation was continued for the next 48 hours (the overall time of cell exposition to peptide was 72 h). At the end of the experiment cells were treated with 20 μL of MTT (5 mg/mL in PBS). After 3 h at 37°C under 5% CO2 medium was discarded and replaced by 6mM HCl in isopropanol. After 15 min when the purple crystals of formazan were fully solubilized, absorbance was read at 570 nm with a plate reader. The optical density reflects the level of cell viability as MTT is converted in purple formazan product only in the presence of viable mitochondria of the living cells.
Fig 1 Pro-proliferative activity of the tested peptides towards human keratinocytes (A) and fibroblasts (B). Cells were incubated for 72 hours in serum-free DMEM medium in the presence of peptides applied at concentrations of 1,10, 25 and 50 μg/mL, respectively. The data represents results of MTT assay expressed as the percentage of the cell viability in comparison to their control sample (cells incubated in serum-free DMEM without tested peptides), additional positive control corresponds to the cells incubated in the presence of 10% FCS. All experiments were performed independently in triplicate. *P < 0.05, **P < 0.01, ***P < 0.001 vs. control.
In order to evaluate a long-term effect of peptides, experiments were carried out for 72 hours. Before addition of the tested compounds, the cell medium was exchanged for the fresh one not containing any serum or antibiotic.

[6] = tested on: human primary dermal fibroblasts; assay: Cell proliferation assay (MTT); type: cell-based; conditions: 72 h, serum-free DMEM, dose-response relationship, peptide at 50 μg/mL
Experimental: Biopsies of healthy human skin were obtained aseptically from three donors (47–69 years old) undergoing circumcision after obtaining their written informed consent. All the procedures were approved by the Ethics Committee of Medical University of Gdansk (NKEBN/483/2011. Issued: 2011-12-19). The samples were washed several times with sterile PBS (Sigma-Aldrich, Germany) containing antibiotic (200 U/mL penicillin and 200 μg/mL streptomycin), after which, the subcutaneous tissue was cut off with a sharp blade. The resulting sheets were cut into small fragments, washed two times with sterile PBS and treated with 6 U/mL dispase II (BD, USA) overnight at 4°C to separate epidermis and dermis. The dermis was then digested with 1.0 mg/mL collagenase type I (from Clostridium histolyticum Sigma-Aldrich, Germany) for 2 hours at 37°C to isolate fibroblasts. Cells were used between the 2nd and 4th passage in all experiments.
as §5
as §6, with “At the end of the experiment cells were treated with 20 μL of MTT (5 mg/mL in PBS). After 3 h at 37°C under 5% CO2 medium was discarded and replaced by 6mM HCl in isopropanol.” left out, “The optical density reflects the level of cell viability as MTT is converted in purple formazan product only in the presence of viable mitochondria of the living cells.” left out
Fig 1 Pro-proliferative activity of the tested peptides towards human keratinocytes (A) and fibroblasts (B). […] The data represents results of MTT assay expressed as the percentage of the cell viability in comparison to their control sample (cells incubated in serum-free DMEM without tested peptides), additional positive control corresponds to the cells incubated in the presence of 10% FCS. […]

[7] = Circular dichroism, alpha-helical content; type: physicochemical; conditions: CD, mean residue ellipticity at 222 nm (Eq 1), peptide 0.4 mg/ml in 30 mM SDS, room temperature
Experimental: Circullar dichroism spectra of analyzed compounds were recorded on a Jasco J-815 spectropolarimeter using a quartz cell of 1 mm path length between 195–260 nm at room temperature. Peptides at concentration of 0.4 mg/ml were dissolved in water or 30 mM SDS solution. SDS micelle system was used as the simplified model of negatively charged lipid membrane. On the basis of the obtained results the alpha-helical content was determined from the mean residue ellipticities at 222 nm according to Eq 1: %Helix=([θ]obs/([θ]helixx(1−2.57/l))x100, (1) where [θ] obs is the experimentally observed mean-residue ellipticity at 222 nm, [θ]helix is the theoretical ellipticity of peptide of infinite length with a 100% helix population, taken as -39 500 deg·cm^2/dmol, and l is the number of peptide bonds.
Circular dichroism method was applied to obtain a basic information about the secondary structure of the synthesized compounds (with the exception of CAR, CAR3, DAL, CTEN2) in two chemical environments, water and 30 mM SDS. As expected, all the tested compounds in water adopted a random-coil structure, while in the presence of 30 mM SDS most of them formed α-helices with characteristic negative minima around 208 and 220 nm. […] The examples of CD spectra for selected peptides could be seen in supporting information (Figure A in S1 File). On the basis of the experimentally obtained values of the mean residue ellipticities of peptides at 222 nm their alpha-helical content was calculated according to the Eq 1 (Table 1).

MIC B. cereus (B. cereus): >125 µg/mL
MIC E.coli [1]: >125 µg/mL
MIC P. aeruginosa [2]: >125 µg/mL
MIC S.aureus [3]: >125 µg/mL
MIC S. epidermidis [4]: 7.8 µg/mL (≈ 3.83 µM)
α-helicity [7]: 27%
Compound: CC(C)C[C@H](NC(=O)CNC(=O)[C@@H](N)CCC(=O)O)C(=O)N[C@@H](CCC(=O)O)C(=O)N1CCC[C@H]1C(=O)NCC(=O)NCCOCCOCC(=O)N[C@@H](CCCCN)C(=O)N[C@@H](CCCCN)C(=O)N[C@H](C(=O)N[C@H](C(=O)N[C@@H](Cc1ccccc1)C(=O)N[C@@H](Cc1c[nH]c2ccccc12)C(=O)N[C@H](C(=O)N[C@@H](CCCCN)C(=O)N[C@@H](Cc1ccccc1)C(=O)N[C@@H](CCCCN)C(N)=O)C(C)C)C(C)C)C(C)C [CTEN2-PEG-KSLW] (HELM PEPTIDE1{E.G.L.E.P.G.[O=C(COCCOCCN[*:1])[*:2]].K.K.V.V.F.W.V.K.F.K.[am]}$$$$V2.0; N-terminus assumed)
Effect on HaCaT proliferation (MTT), in words [5]: noticeable pro-proliferatory activity
Effect on fibroblast cell count (MTT), in words [6]: highest cell count
